Laboratory results: paper PMC4879371, “Antitrypanosomal Activities and Mechanisms of Action of Novel Tetracyclic Iridoids from Morinda lucida Benth” (Antimicrobial Agents and Chemotherapy, 2016)
Entries after “also recorded” stand apart in the source; their conditions may differ.

What was measured:
[1] = MTT cytotoxicity assay, NB1RGB; assay type: cell-based, human; conditions: human, NB1RGB skin fibroblast cells; NB1RGB normal skin fibroblast, 48 h
Protocol: (§1) The cytotoxicity of the compounds to mammalian cells were determined using four human normal cell lines, namely, NB1RGB (skin fibroblast) and HF-19 (lung fibroblast) obtained from the RIKEN Bio Resource Center Cell Bank (Japan) and Chang Liver and Hs888Lu (lung) obtained from the European Collection of Authenticated Cell Cultures (ECACC). NB1RGB and HF-19 were maintained in minimum essential medium-α (MEM-α). Chang Liver and Hs888Lu were grown in Eagle's minimum essential medium (EMEM) and RPMI 1640, respectively. All of these media were supplemented with 10% fetal bovine serum (FBS) and 1% penicillin-streptomycin and were then incubated at 37°C under 5% CO2 in fully humidified conditions.
(§2) Cytotoxicity was determined using a 3-(4,5-dimethylthiazol-2-yl)-2,5-diphenyltetrazolium bromide (MTT) assay. The cells were treated with molucidin, ML-2-3, or ML-F52 at concentrations of ≤50 μM for 48 h. Cells were plated at a density of 0.5 × 10^4 cells/well into 96-well plates. After 24 h of incubation, cells were treated with various concentrations of each of the purified compounds for 48 h. Then, MTT solution was added to each well, and the cells were incubated for another 4 h. The precipitated MTT-formazan product was dissolved in 0.04 N HCl-isopropanol, and the amount of formazan was measured at a wavelength of 595 nm by a microplate reader (Immuno Mini NJ-2300; Nihon InterMed, Tokyo, Japan). Cytotoxicity was calculated as the percentage of live cells relative to the control culture. The selectivity index (SI) was expressed as the ratio of the IC50 obtained for mammalian cells and the IC50 for trypanosomes.

[2] = system: NB1RGB (skin fibroblast); assay: MTT cytotoxicity assay, NB1RGB; assay type: cell-based, human; conditions: IC50 NB1RGB / IC50 trypanosomes
Protocol: as §1, §2

[3] = MTT cytotoxicity assay, HF-19; assay type: cell-based, human; conditions: human, HF-19 lung fibroblast cells; HF-19 normal lung fibroblast, 48 h
Protocol: as §1, §2

[4] = system: HF-19 (lung fibroblast); assay: MTT cytotoxicity assay, HF-19; assay type: cell-based, human; conditions: IC50 HF-19 / IC50 trypanosomes
Protocol: as §1, §2

[5] = MTT cytotoxicity assay, Hs888Lu; assay type: cell-based, human; conditions: human, Hs888Lu lung cells; Hs888Lu normal lung, 48 h
Protocol: as §1, §2

[6] = system: Hs888Lu (lung); assay: MTT cytotoxicity assay, Hs888Lu; assay type: cell-based, human; conditions: IC50 Hs888Lu / IC50 trypanosomes
Protocol: as §1, §2

[7] = MTT cytotoxicity assay, Chang Liver; assay type: cell-based, human; conditions: human, Chang Liver cells; Chang liver normal liver, 48 h
Protocol: as §1, §2

[8] = system: Chang Liver; assay: MTT cytotoxicity assay, Chang Liver; assay type: cell-based, human; conditions: IC50 Chang liver / IC50 trypanosomes
Protocol: as §1, §2

[9] = system: Trypanosoma parasites (T. brucei brucei); assay: FACS Nexin assay for apoptosis in trypanosome parasites; assay type: cell-based; conditions: 24 h; for minimum concentration inducing strong apoptosis: 0 μM to 50 μM tested; for apoptosis induction: molucidin 6.25 μM, ML-2-3 6.25 μM, ML-F52 0.78 μM
Protocol: Seeding and incubation of parasites with compounds were done under the same conditions as those for the alamarBlue assay as described above without addition of the alarmarBlue reagent. In this case, after 24 h of incubation, Guava reagents for Nexin and cell cycle assays were added, and each assay was performed using the Millipore Guava easyCyte 5HT fluorescence-activated cell sorter (FACS) machine according to the manufacturer's instruction. The Nexin assay and subsequent FACS analysis allowed for detection of markers of apoptosis induction by the plant materials. Similarly, the cell cycle assay and subsequent FACS analysis allowed for detection of markers of cell cycle alteration by the plant materials. […]

[10] = system: paraflagellum rod protein subunit 2, PFR-2; assay: PFR-2 expression, immunohistochemistry and Western blotting with anti-PFR-2 antibody; assay type: cell-based, Trypanosoma brucei brucei; conditions: for expression of PFR-2 protein: 24 h, 5 μM molucidin, 15 μM ML-2-3, 0.43 μM ML-F52
Protocol: (§3) To investigate the effect of the compounds on parasite morphology and their flagellum function, immunohistochemistry using anti-paraflagellum rod protein anti-PFR-2 antibody ([37]), was performed with molucidin-, ML-2-3-, and ML-F52-treated trypanosome parasites. […] Parasites were then harvested after incubation with or without appropriate concentrations of compounds and were fixed with 4% paraformaldehyde in 8-well chamber slides at room temperature for 5 min. Washing steps were carried out with 500 μl of phosphate-buffered saline (PBS) twice and 0.1% Triton X-100 in PBS (PBST) at room temperature for 5 min each. Blocking reagent (500 μl; 3% bovine serum albumin [BSA] in PBS) was added and incubated for 30 min at room temperature. Primary and secondary antibody incubation with parasites was done for 1 h each, and 4′,6-diamidino-2-phenylindole (DAPI) (5 μg/ml DAPI in PBS) staining was done for 10 min. After the washing steps presented above, the slides were mounted using PermaFluor mounting reagent and were covered with coverslips. The slides were observed under an Olympus fluorescence microscope (Olympus BX53) to detect any phenotypic changes in T. brucei brucei parasites.
Trypanosome parasites were incubated with or without compound in vitro and were lysed with 0.5% NP-40 ([38]). Protein concentration of the lysate was determined using the Bio-Rad protein assay reagents (Bio-Rad, USA). SDS-PAGE was run using Invitrogen NuPAGE 12% Bis-Tris gel. The proteins were blotted on a polyvinylidene difluoride (PVDF) membrane (Immobilon P; Millipore, USA), added with mouse anti-PFR-2 antibody, 1:500 dilution, and incubated at 4°C overnight. The membrane was then incubated with anti-mouse horseradish peroxidase (HRP) antibodies, 1:2,000 dilution, for an hour at room temperature. Chemiluminescence HRP substrates A and B (Immobilon Western; Millipore, USA) were added to the membrane in a ratio of 1:1. Detection was done using the ATTO cooled charge-coupled device (CCD) camera system EzCapture II (ATTO Corporation, Japan).
To investigate the sequence in which the events (apoptosis induction, PFR-2 suppression, and cell cycle alteration) involved in mechanisms of action occur, we examined the time course for the three events using ML-2-3-treated parasites. Trypanosoma brucei parasites were incubated for 0, 0.5, 1.5, 3, 6, and 24 h with 15 μM ML-2-3 and were then subjected to both Nexin assay and Western blot analyses using the PFR-2 antibody. We further investigated the time course of cell cycle alteration using ML-2-3-treated parasites at similar concentrations and incubation periods.

[11] = system: T. brucei brucei parasites; assay: Parasite morphology, DAPI / anti-PFR-2 immunohistochemistry; assay type: cell-based, Trypanosoma brucei brucei; conditions: 24 h; 5 μM molucidin, 15 μM ML-2-3, 0.43 μM ML-F52
Protocol: as §3

| Structure (SMILES) | IC50 at 48 h [1] | SI (selectivity index) [2] | IC50 at 48 h [3] | SI (selectivity index) [4] | IC50 at 48 h [5] | SI (selectivity index) [6] | IC50 at 48 h [7] | SI (selectivity index) [8] | minimum concentration inducing strong apoptosis [9] | early-stage apoptotic cells (lower right quadrant) ([9]; 6.25 μM) | late-stage apoptotic cells (upper right quadrant) ([9]; 6.25 μM) | apoptosis induction [9] | time of exposure to significant suppression of PFR-2 protein expression ([10]; 15 μM ML-2-3, time course Western blot) | expression of PFR-2 protein [10] | effect on nuclei and kinetoplast (DAPI) [11] | effect on parasite cell form [11] | early-stage apoptotic cells (lower right quadrant) ([9]; 0.78 μM) | late-stage apoptotic cells (upper right quadrant) ([9]; 0.78 μM) |
| --- | --- | --- | --- | --- | --- | --- | --- | --- | --- | --- | --- | --- | --- | --- | --- | --- | --- | --- |
| COc1cc(/C=C2/C(=O)O[C@]34C=C[C@@H]5C(C(=O)O)=CO[C@H](O[C@@H]23)[C@@H]54)ccc1O [ML-2-3] | > 50 µM | >13.33 | > 50 µM | >13.33 | > 50 µM | >13.33 | > 50 µM | >13.33 | 6.25 µM | 7.8% | 4.4% | significant apoptosis induction | ≤ 0.5 h | suppression of PFR-2 expression; also recorded: suppressed the expression of PFR-2 proteins | fragmented nuclei with normal kinetoplast | typical short stumpy form |  |  |
| CCOC(=O)C1=CO[C@@H]2O[C@H]3/C(=C\c4ccc(O)c(OC)c4)C(=O)O[C@]34C=C[C@H]1[C@H]24 [ML-F52] | 4.74 µM | 11.02 | 10.9 µM | 25.44 | 8.89 µM | 20.67 | 18.1 µM | 42.16 | 0.78 µM |  |  | strongest induction of apoptosis |  | suppression of PFR-2 expression; also recorded: suppressed the expression of PFR-2 proteins | fragmented nuclei with normal kinetoplast | abnormal cells that had two sets of kinetoplasts and flagellum with fragmented nuclei | 14.2% | 2.3% |
| COC(=O)C1=CO[C@@H]2O[C@H]3/C(=C\c4ccc(O)c(OC)c4)C(=O)O[C@]34C=C[C@H]1[C@H]24 [molucidin] | 7.11 µM | 5.60 | 14.2 µM | 11.21 | 9.29 µM | 7.31 | 9.34 µM | 7.35 |  | 1.1% | 0% | no significant induction of apoptosis; also recorded: no significant apoptotic induction |  | significant expression of PFR-2 | intact kinetoplast but totally disintegrated nuclei | stumpy-like parasites |  |  |
